Results taken from PubChem BioAssay (NCI).
“And” between values parts separate entries of the source, which are not always exact repeats. Equal values may be shown once.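 Cells were grown in 96-well plates and exposed to each compound for 48 hours at five concentrations; endpoints were interpolated linearly between bracketing concentrations, or set to the highest concentration if not reached. GI50 = concentration required for 50% inhibition of growth. At the TGI there is no net growth.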

Experiments:
Assay in all cases: growth of human tumour cells (NCI), 48 h
BT-549 breast = test system: BT-549 breast
IGROV1 ovarian = test system: IGROV1 ovarian
LOX IMVI melanoma = test system: LOX IMVI melanoma
M14 melanoma = test system: M14 melanoma
MCF7 breast = test system: MCF7 breast
NCI-H226 lung = test system: NCI-H226 lung
NCI/ADR-RES ovarian = test system: NCI/ADR-RES ovarian
SF-539 CNS = test system: SF-539 CNS
SNB-19 CNS = test system: SNB-19 CNS
SW-620 colon = test system: SW-620 colon

SMILES | GI50 (BT-549 breast) | TGI (BT-549 breast) | GI50 (IGROV1 ovarian) | TGI (IGROV1 ovarian) | GI50 (LOX IMVI melanoma) | TGI (LOX IMVI melanoma) | GI50 (M14 melanoma) | TGI (M14 melanoma) | GI50 (MCF7 breast) | TGI (MCF7 breast) | GI50 (NCI-H226 lung) | TGI (NCI-H226 lung) | GI50 (NCI/ADR-RES ovarian) | TGI (NCI/ADR-RES ovarian) | GI50 (SF-539 CNS) | TGI (SF-539 CNS) | GI50 (SNB-19 CNS) | TGI (SNB-19 CNS) | GI50 (SW-620 colon) | TGI (SW-620 colon)
O=C(Nc1cccc(Cl)c1)c1ccc(NC2=C(Cl)C(=O)N(Cc3ccccc3)C2=O)cc1 | 8.33 µM | 31.5 µM | 9.95 µM | > 62.6 µM | 4.24 µM | 9.27 µM | 16.6 µM | 37.3 µM | 3.19 µM | 12.2 µM | 14.8 µM | 31 µM | 9.53 µM | 24.9 µM | 20.4 µM | 36.3 µM | 21.5 µM | > 59.2 µM | 7.4 µM | 19.7 µM
COc1ccc(/C=C\c2cc(OC)c(OC)c(OC)c2)cc1OC(=O)c1cccc(Cn2cc(CCOC(=O)[C@H](N)Cc3cn(C)c4ccccc34)nn2)c1 | < 0.01 µM | 13.3 µM | < 0.0136 µM | > 100 µM | < 0.01 µM | 14.2 µM | < 0.01 µM | 16.9 µM | 0.0123 µM | 14 µM | < 0.0169 µM | 38.9 µM | < 0.01 µM | 23.5 µM | < 0.01 µM | 0.272 µM | < 0.01 µM | > 100 µM | < 0.01 µM | > 100 µM
CC1=C2C[C@H]3[C@@H](CC[C@@H]4CC(NS(C)(=O)=O)CC[C@@]43C)[C@@H]2CC[C@@]2(C1)O[C@@H]1C[C@H](C)CN[C@H]1[C@H]2C (some centres undefined) | 12 µM | 26 µM | 11.9 µM | 26 µM | 5.48 µM | 16.3 µM | 7.92 µM | 22.6 µM | 3.49 µM | 14.9 µM | 5.44 µM | 21.1 µM | 12.2 µM | 28.3 µM | 12.9 µM | 25.9 µM | 12.5 µM | 27 µM | 13.8 µM | 28.9 µM
COc1ncc(-c2ccc3nccc(-c4ccnnc4)c3c2)cc1NS(=O)(=O)c1ccc(F)cc1F | 0.00392 µM and < 0.01 µM | 0.0688 µM and 0.0434 µM | < 0.01 µM | 0.00752 µM and < 0.01 µM | 0.00758 µM and < 0.0106 µM | 1.12 µM and 1.26 µM | 0.013 µM and < 0.01 µM | 0.794 µM and 0.485 µM | 0.00101 µM and < 0.01 µM | > 10 µM and 11 µM | 0.0269 µM and 0.0208 µM | > 3.68 µM and 2.91 µM | 0.0228 µM and 0.0246 µM | > 8.81 µM and 4.37 µM | 0.00746 µM and < 0.01 µM | 0.0587 µM and 0.0468 µM | 0.0397 µM and 0.0127 µM |  | 0.0151 µM and 0.0225 µM | > 4.47 µM and 1.92 µM
COc1cc2cc(Oc3ccc(NC(=O)Nc4cccc(C(F)(F)F)c4)cc3)c(C)nc2cc1OC | 1.43 µM | 6.18 µM | 2.95 µM | 24.9 µM | 1.84 µM | 6.61 µM | 1.67 µM | 7.67 µM | 1.34 µM | 5.43 µM | 1.8 µM | 5.6 µM | 1.71 µM | 7.19 µM | 2.48 µM | 8.74 µM | 2.19 µM | 15 µM | 2.28 µM | 11.1 µM
N[C@@H]1CCCC[C@H]1N.O=C([O-])C(=O)[O-].[Pt+4] | 12.3 µM | > 100 µM | 1.85 µM | 35.9 µM | 1.13 µM | > 100 µM | 7.22 µM | 45.1 µM | 0.224 µM | 6.63 µM | 2.55 µM | 17 µM | 0.0318 µM | 30.4 µM | 10 µM | > 83.8 µM | 9.85 µM | > 100 µM | 0.0468 µM | > 83.7 µM
O=C(c1ccco1)c1nc2cc(Cl)ccc2[n+]([O-])c1C(F)(F)F | 35.1 µM | > 100 µM | 54.5 µM | > 100 µM | 48.4 µM | > 100 µM | 59.1 µM | > 100 µM | 41 µM | > 100 µM | 33.2 µM | > 100 µM | 52.4 µM | > 100 µM | > 100 µM | > 100 µM | 69 µM | > 100 µM | 39.1 µM | > 100 µM
Cc1cc(S(N)(=O)=O)c(S/C(CC(C)C)=N\Nc2ccc([N+](=O)[O-])cc2)cc1Cl | 17.7 µM | 31.7 µM | 6.77 µM | 21.2 µM | 5.81 µM | 29.2 µM | 4.99 µM | 16.5 µM | 2.36 µM | 7.27 µM | 2.82 µM | 7.77 µM | 5.9 µM | 19.2 µM | 16.2 µM | 29.7 µM | 13.2 µM | 27.3 µM | 8.82 µM | 29.9 µM
Ic1ccccc1-c1ccccc1 | > 100 µM | > 100 µM | > 100 µM | > 100 µM | 42.4 µM | > 100 µM | > 100 µM | > 100 µM | > 100 µM | > 100 µM | > 100 µM | > 100 µM | > 100 µM | > 100 µM | > 100 µM | > 100 µM | > 100 µM | > 100 µM | > 100 µM | > 100 µM
Nc1c(Br)cc(Br)c2c1[nH]c(=O)c1ccccc12 | 7.05 µM | 41 µM | 4.85 µM | 38.5 µM | 20.5 µM | > 100 µM | 9.89 µM | > 100 µM | 0.577 µM | > 100 µM | 2.75 µM | 12.7 µM | 6.68 µM | 66.7 µM | 42 µM | > 100 µM | 10.2 µM | 57.5 µM | 23.1 µM | > 100 µM
CCC(CO)Nc1nc(NCc2ccccc2O)c2ncn(C(C)C)c2n1 (centres undefined) | 2.76 µM | > 100 µM | 1.81 µM | 5.64 µM | 2.63 µM | > 100 µM | 4.77 µM | 18.8 µM | 2.88 µM | 8.73 µM | 8.95 µM | 50.8 µM | 6.63 µM | 53.9 µM | 3.72 µM | 28.4 µM | 3.3 µM | 76 µM | 3.34 µM | > 100 µM
Cn1c(/C=C(\C#N)c2ccccc2)nc2c(N3CCOCC3)nc(Cl)nc21 | 0.711 µM | 2.07 µM | 0.871 µM | 2.17 µM | 0.324 µM | 1.25 µM | 0.844 µM | 2.26 µM | 0.48 µM | 2.15 µM | 1.52 µM | 3.4 µM | 1.98 µM | 7.23 µM | 1.42 µM | 2.74 µM | 1.6 µM | 3.09 µM | 0.413 µM | 1.51 µM
